Data as given in patent US12215101B2, “Pro drugs of PDE10 compounds” (Merck Sharp & Dohme LLC, priority 2021, dated 2025).
≈ marks a conversion by molar mass, not a printed value.

What was measured:
[1] = Aqueous solubility (slurry in pH 7 buffer, UPLC); type: physicochemical; conditions: aqueous buffer, thermodynamic from solid; pH 7.4 in PBS buffer solution; read-out: Solubility
Description: Aqueous solubility of the compounds was measured by suspending, sonicating (30 minutes), and slurrying (2 hours, 1000 rpm) excess solid (typically 5-10 mg) in phosphate buffered saline at pH 7, or equivalent pH 7 buffer. The suspension was then sonicated again for 30 minutes and stirred again at 1000 rpm for at least 6-24 hours. Approximately 400 μL of sample was removed and placed into spin filters. Each sample was spun at 14K rpm for 10 minutes using a 0.45 μm PVDF spin filter. A portion of the filtrate was removed and diluted with 1:1 ACN:H2O. The resultant samples were analyzed using UPLC analysis. Retains of the solids were checked by XRPD to determine if the material was crystalline or amorphous. Solubility of Compound A was measured at 140 μg/mL at pH 7.4 in PBS buffer solution.

[2] = target: T1, human PDE10 enzyme (Homo sapiens, UniProt Q9Y233); assay: PDE10 fluorescence polarization (IMAP FP) inhibition assay; type: biochemical; conditions: 'generally less than about'
T1 construct: made in house; host or cells: AD293 cells, transiently transfected; the supernatant (cytoplasmic fraction) of the sonicated lysate served as enzyme
T1 sequence (Q9Y233 267-1055): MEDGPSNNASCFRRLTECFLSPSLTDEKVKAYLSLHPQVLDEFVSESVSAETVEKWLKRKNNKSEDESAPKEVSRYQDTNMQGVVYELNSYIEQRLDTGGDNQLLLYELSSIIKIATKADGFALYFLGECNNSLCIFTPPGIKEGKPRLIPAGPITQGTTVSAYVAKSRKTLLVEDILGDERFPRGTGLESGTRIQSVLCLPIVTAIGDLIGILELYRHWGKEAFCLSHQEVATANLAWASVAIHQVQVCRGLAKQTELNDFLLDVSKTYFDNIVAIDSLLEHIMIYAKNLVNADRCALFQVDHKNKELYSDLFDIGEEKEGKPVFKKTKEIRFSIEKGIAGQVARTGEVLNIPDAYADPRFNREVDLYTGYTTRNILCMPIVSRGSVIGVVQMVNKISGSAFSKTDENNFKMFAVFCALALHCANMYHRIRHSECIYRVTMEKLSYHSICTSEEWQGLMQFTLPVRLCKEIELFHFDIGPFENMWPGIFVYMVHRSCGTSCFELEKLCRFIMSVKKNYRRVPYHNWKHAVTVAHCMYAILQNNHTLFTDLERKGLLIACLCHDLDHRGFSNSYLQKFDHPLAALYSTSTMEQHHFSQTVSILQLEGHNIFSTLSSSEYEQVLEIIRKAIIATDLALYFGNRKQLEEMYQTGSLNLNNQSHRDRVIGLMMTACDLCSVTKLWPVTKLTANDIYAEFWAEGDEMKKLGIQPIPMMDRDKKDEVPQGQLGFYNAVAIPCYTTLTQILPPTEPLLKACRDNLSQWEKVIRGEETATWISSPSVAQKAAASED
Description: The activity of the compounds in accordance with the present invention as PDE10 inhibitors may be readily determined without undue experimentation using a fluorescence polarization (FP) methodology that is well known in the art (Huang, W., et al., J. Biomol Screen, 2002, 7: 215).
In a typical experiment the PDE10 inhibitory activity of compounds such as Compound A was determined in accordance with the following experimental method. PDE10A2 was amplified from human fetal brain cDNA (Clontech, Mountain View, CA) using a forward primer corresponding to nucleotides 56-77 of human PDE10A2 (Accession No. AF127480, Genbank Identifier 4894716), containing a Kozak consensus sequence, and a reverse primer corresponding to nucleotides 2406-2413 of human PDE10A2 (Accession No. AF127480, Genbank Identifier 4894716). Amplification with Easy-A polymerase (Stratagene, La Jolla, CA) was 95° C. for 2 minutes followed by thirty three cycles of 95° C. for 40 seconds, 55° C. for 30 seconds, and 72° C. for 2 minutes 48 seconds. Final extension was 72° C. for 7 minutes. […] The fluorescence polarization assay for cyclic nucleotide phosphodiesterases was performed using an IMAP® FP kit supplied by Molecular Devices, Sunnyvale, CA (product #R8139). […] 0% of inhibition is determined by using DMSO (1% final concentrations). […]

solubility [1]: 140 µg/mL (≈ 366 µM) | Ki [2]: < 1 µM
SMILES: Cc1ccc([C@H]2C[C@@H]2COc2cc(NCc3nnc(C)s3)nc(C)n2)nc1 [Compound A, 2-methyl-N-((5-methyl-1,3,4-thiadiazol-2-yl)methyl)-6-(((1S,2S)-2-(5-methylpyridin-2-yl)cyclopropyl)methoxy)pyrimidin-4-amine, reference compound]
